Reference: publication PMC9098178, “SAR of Novel 3-Arylisoquinolinones: meta-Substitution on the Aryl Ring Dramatically Enhances Antiproliferative Activity through Binding to Microtubules” (Journal of Medicinal Chemistry, 2022)
Like-named read-outs stand apart in the source and are kept apart here.

Key:
SNU423 = assay: SRB antiproliferative assay, SNU423; assay type: cell-based, human; conditions: Homo sapiens
Description: (§1) In light of this substantial change in activity between the meta and para compounds, a more comprehensive analysis of the antiproliferative activity was performed for the meta-/para-3-arylisoquinolinone pairs 2 and 3, 4, and 5, as well as 6. A panel of breast (MDA-MB-231), liver (HepG2, SNU423), lung (A549), and colon (HCT116) cancer cell lines were treated with the five 3-arylisoquinolinone analogs for 96 h followed by the SRB assay. The dose–response curves (including those for MCF-7) are presented in Figure S22, and their relevant IC50 values are listed in Table 1. […] The differential activity between meta- and para-3-arylisoquinolinones was reproduced in the National Cancer Institute (NCI) one-dose screen using a panel of 59 cancer cell lines (Figure S23).
All cell lines used in the study were human-derived and purchased from ATCC (Manassas, USA). Breast adenocarcinoma MCF-7 and MDA-MB-231 cell lines were cultured in DMEM. Hepatocellular carcinoma HepG2 and SNU423 cell lines were grown in MEME combined with 1% (v/v) nonessential amino acids and RPMI supplemented with 2 mM glutamine, respectively. Lung adenocarcinoma A549 and colorectal carcinoma HCT116 cells were grown in RPMI (+2 mM glutamine). All previous media were further supplemented with 10% heat-inactivated fetal bovine serum. The immortalized, normal liver THLE-3 cells were grown in BEGM (Lonza, Cat# CC-3170) onto precoated vessels according to ATCC’s instructions. Human umbilical vein endothelial cells (HUVECs) were cultured in EGM-2 (Lonza, Cat# CC-3162). All of the cells were maintained at 37 °C and 5% CO2 in a humidified incubator.
Screening of the antiproliferative activity of 3-arylisoquinolinones was performed using the SRB assay as previously described.[56] Exponentially growing HepG2, SNU423, MDA-MB-231, MCF-7, A549, HCT116, THLE-3, and HUVECs were seeded in 96-well plates at densities of 3000, 2000, 1500, 2500, 1000, 1000, 4000, and 4000 cells/well, respectively. These densities were experimentally selected so that the DMSO-treated cells (control) were approximately 80–90% confluent at the assay’s endpoint, and their optical density (OD) values fell within the assay’s linear range. […] After treatment, cell monolayers were fixed with 10% (w/v) trichloroacetic acid for 1 h at 4 °C, washed, and dried. Then, the cells were exposed to 0.4% (w/v) SRB dye (prepared in 1% (v/v) acetic acid; Botium, Cat# 80100) for 15 min followed by several 1% acetic acid washing and then drying. Finally, the cellular protein-bound SRB was thoroughly dissolved in 10 mM Tris base, and the OD values were read at 510 nm using a plate reader (μQuant Microplate Spectrophotometer, Biotek, U.K.) coupled with Gen5 software (BioTek, U.K.). Compound-induced changes in cell growth were inferred from changes in OD values. Cell growth was calculated using the following formula: cell growth (%) = (ODtest/ODcontrol) × 100.

HepG2 cells = assay: Clonogenic assay; assay type: cell-based, human; conditions: 14 days
Description: HepG2 cells were treated with varying concentrations of 2–6 added once and kept for 14 days before counting colonies and calculating surviving fraction (Figure 2).
The ability of potential anticancer agents to prevent unlimited cell division and induce reproductive cell death was assessed using clonogenic assay as previously described.[57] In brief, HepG2 cells were seeded into six-well plates at a density of 1000 single cells/well and incubated for 10–12 h to adhere. The cells were then treated with DMSO (control) or a range of concentrations of 2–6 for 14 days. Afterward, the produced colonies were washed with phosphate-buffered saline (PBS), fixed with 70% ethanol for 20 min, and stained with 0.5% (w/v) methylene blue (prepared in 70% methanol). Following washing with water and drying, colonies (≥50 cells) were manually counted. The colony-forming efficiency (CFE) of cells was calculated by dividing the number of colonies formed by the number of cells seeded for each condition. The surviving fraction was determined by dividing the CFE of the treated cells by CFE of the control cells. A survival curve was generated by plotting the log of drug concentrations versus surviving fraction.

[1] = test system: panel of 59 cancer cell lines; assay: NCI one-dose screen; assay type: cell-based; conditions: 10 µM, 48 h, SRB
Description: as §1
Figure S23. NCI One-Dose Mean graphs for 3-arylisoquinolinones 4, 5 […]
In NCI one-dose screen, the 59 cell lines (classified into 9 groups) were exposed to 4, 5 and 7 at a single dose of 10 µM for 48 h followed by SRB assay. The one-dose data were reported as a mean graph of the growth percentage of treated cells, as relative to the cell number of both the no-drug control and the zero time (before adding the test agent). Values between 0 and 100 indicate growth inhibition, whereas values less than 0 indicate lethality. For instance, a value of 40 means 60% growth inhibition; 0, no growth throughout the experiment; -40, 40% lethality; and - 100, all cells are dead.1
A) One-dose mean graph for 3-arylisoquinolinone 4 (NSC number 795055)

HUVECs [2] = assay: Endothelial cell tube formation assay; assay type: cell-based, human; conditions: 16 h, Matrigel
Description: (§2) Moreover, networks of HUVEC-based tubes were exposed for 16 h to different concentrations of 4 and 5 to assess their potential tube disruptive effects (Figure 8B). […] The disruption was more pronounced at 1 and 2 μM of 4, as evidenced by a decrease in tube junctions and formation of short distorted tubes.
(§3) Matrigel (Corning, Cat# 356237) was gently added into 96-well plates at a volume of 70 μL/well and allowed to gel at 37 °C for 30 min. A mixture of HUVECs (25 × 10^3) and DMSO, 4 (0.5, 1, 2 μM), or 5 (25 μM) was then dispensed over the gels and incubated for 16 h. Next, the wells were filled with PBS and covered with a coverslip to diminish the meniscus effect, allowing proper examination of the endothelial tube networks under a light microscope (Optika XDS-3, Italy). Bright-field images of 4x magnification were captured and then processed using Fiji ImageJ software. For the assessment of endothelial tube disruption, HUVECs at a density of 25 × 10^3 cells/well were seeded onto Matrigel and incubated for 4 h to align into tubes. The cells were then treated with DMSO, 4, or 5 for 16 h prior to the microscopic examination as mentioned above.

HUVECs [3] = assay: Endothelial tube disruption assay; assay type: cell-based, human; conditions: 16 h treatment after 4 h tube formation; concentration-dependent, more pronounced at 1 and 2 μM of 4
Description: as §2, §3

[4] = SNU-423, 96 h treatment, mean ± SEM, read-out: IC50 SNU423

SMILES | IC50 (SNU423; SNU-423, 24 h +drug/72 h –drug treatment, read-out: mean IC50 ± SEM, SNU423) [nM] | IC50 (SNU423; [4]) [nM] | colony formation (HepG2 cells; 0.5 or 1 μM) | inhibition of growth in NCI one-dose screen [1] | effect on capillary-like tube formation (HUVECs [2]; 2 μM) | disruption of preestablished capillary-like tubes (HUVECs [3]) | surviving fraction (HepG2 cells; concentrations as high as 20 μM) | effect on capillary-like tube formation (HUVECs [2]; 25 μM)
O=c1[nH]c(-c2cccc(F)c2)cc2cc(F)ccc12 [compound 4, 6-Fluoro-3-(3-fluorophenyl)isoquinolin-1(2H)-one] | 360 ± 10 | 250 ± 30 | No colonies were apparent | far more potent in the inhibition of growth of many of the cell lines | markedly suppressed tube formation | able to disrupt the preestablished capillary-like tubes | – | –
O=c1[nH]c(-c2ccc(F)cc2)cc2cc(F)ccc12 [compound 5, 6-Fluoro-3-(4-fluorophenyl)isoquinolin-1(2H)-one] | – | > 50000 | – | less active | – | not observed | 0.5 | did not significantly affect the process of tube formation
